Experimental findings from patent US20230310654A1 (priority 2020, published 2023) are described below.

One data set has as its system juvenile mice. The note with it: mouse, in vivo.
Another data set has as its system CBE mouse model. As to conditions: in vivo.
Another data set has as its system male cynomolgus monkeys. The note with it: cynomolgus monkey, in vivo.

Consider conduritol-β-epoxide [CBE], for which, in the data set on juvenile mice, the “lethality (mice died by P27)” value is 5 of the 8. For the same compound, the body weight result with juvenile mice (ip) is “failure to gain weight”. For the same compound, in the data set on CBE mouse model, the “adverse effects in peripheral tissues” value is reported as “No adverse effects”; the “inhibition of PR001A-encoded and endogenous GCase activity by CBE treatment” value is recorded as “approximately 50%”; the “reduction of effective GCase activity in tissues following treatment with CBE” value is reported as “up to 60%”.
In the case of `CO[C@H]1C[C@@H]2CC[C@@H](C)[C@@](O)(O2)C(=O)C(=O)N2CCCC[C@H]2C(=O)O[C@H]([C@H](C)C[C@@H]2CC[C@@H](O)[C@H](OC)C2)CC(=O)[C@H](C)/C=C(\C)[C@@H](O)[C@@H](OC)C(=O)[C@H](C)C[C@H](C)/C=C/C=C/C=C/1C` [rapamycin], in the data set with male cynomolgus monkeys, the “effect on safety or biodistribution of PR001A” value is reported as “did not appear to have any effect”.
